What all share (assay type): physicochemical
The nature of data set [1]: Bulk stability of solid under temperature/humidity stress (HPLC, appearance, XRPD). On the procedure: Bulk stability of (S)-4-((2-methoxyethyl)(4-(5,6,7,8-tetrahydro-1,8-naphthyridin-2-yl)butyl)amino)-2-(quinazolin-4-ylamino)butanoic acid L-tartaric acid cocrystal Pattern A was evaluated at 25° C./92.5% RH in an open container, at 40° C./75% RH in an open container, and at 60° C. in a closed container over 1 week and 4 weeks.
However, it became deliquescent after being stressed at 25° C./92.5% RH in an open container and at 40° C./75% RH in an open container after 1 week.

Assay in data set [2]: as above
The following applies: for Bulk appearance (color change / deliquescence): Solid state, open container, 1 week.

A short description of data set [3]: Solubility at 37° C. in aqueous and biorelevant media. The following applies: for Solubility (mg/ mL) 2 h / Solubility (mg/ mL) 24 h: target 250 mg/mL (in free form). On the procedure: To prepare the samples of (S)-4-((2-methoxyethyl)(4-(5,6,7,8-tetrahydro-1,8-naphthyridin-2-yl)butyl)amino)-2-(quinazolin-4-ylamino)butanoic acid L-tartaric acid cocrystal Pattern A, 80.6 mg was weighed into a 2 mL glass vial. Next, 0.18 mL of solubility medium was added. The salt amount used is equivalent to 45 mg of the amorphous free form. Obtained suspensions/solutions were stirred at 37° C. at 400 rpm and sampled at 2 h and at 24 h. The samples were centrifuged at 37° C. at 14,000 rpm for 5 min. Supernatants were analyzed by HPLC and pH meter for solubility and pH value, respectively. […]

Data set [4] can be described thus: Water activity experiments in MeOH/water (relative stability of hydrate Pattern A and hydrate Pattern B). The following applies: methanol/water. The procedure: The relative stability of the hydrate Pattern A and the hydrate Pattern B was investigated using water activity experiments in MeOH/water systems. About 5 mg of (S)-4-((2-methoxyethyl)(4-(5,6,7,8-tetrahydro-1,8-naphthyridin-2-yl)butyl)amino)-2-(quinazolin-4-ylamino)butanoic acid L-tartaric acid cocrystal Pattern A and 5 mg of (S)-4-((2-methoxyethyl)(4-(5,6,7,8-tetrahydro-1,8-naphthyridin-2-yl)butyl)amino)-2-(quinazolin-4-ylamino)butanoic acid L-tartaric acid cocrystal Pattern B were added to 0.1-0.5 mL saturated solutions of the methanol/water system. Obtained suspensions were stirred at 5° C., 25° C. and 50° C. for up to 21 days, respectively. Solid parts (wet cakes) were isolated by centrifugation filtration and investigated by XRPD.

Data set [5] is described as follows: Equilibration of Pattern C suspension in IPA/water at 5° C. The conditions noted are these: IPA/water mixture, equilibration at 5° C., after 3 days. On the procedure: Method 2: (S)-4-((2-methoxyethyl)(4-(5,6,7,8-tetrahydro-1,8-naphthyridin-2-yl)butyl)amino)-2-(quinazolin-4-ylamino)butanoic acid L-tartaric acid cocrystal Pattern C was prepared using the following procedure. 200 mg of (S)-4-((2-methoxyethyl)(4-(5,6,7,8-tetrahydro-1,8-naphthyridin-2-yl)butyl)amino)-2-(quinazolin-4-ylamino)butanoic acid L-tartaric acid cocrystal Pattern A (see Example 1) was dissolved in 1.8 mL of IPA/water (7:3, v:v) at 50° C. The obtained thin suspension was filtered through a 0.45 μm syringe membrane filter to obtain a clear solution. The clear solution was cooled to 5° C. at 0.1° C./min after stirring at 50° C. for about 30 min. After stirred at 5° C. for about 2 days, a suspension was obtained. Solids were collected by centrifugation and investigated by XRPD. A low crystallinity Pattern C was obtained.
The suspension was kept stirring at 5° C. for another 3 days. Solids were collected by centrifugation and investigated by XRPD. A low crystalline Pattern B was obtained.

Where [6] appears, read: Solid state, 60° C., closed container, 1 week.
[7] abbreviates: pH 4.5 acetate buffer (50 mM), 37° C.
[8] abbreviates: pH 6.8 phosphate buffer (50 mM), 37° C.

Where a name gives a salt, the structure may show the parent alone. Bounds are passed on as bounds.

For the molecule `COCCN(CCCCc1ccc2c(n1)NCCC2)CC[C@H](Nc1ncnc2ccccc12)C(=O)O` [Phosphate salt, hydrate, (S)-4-((2-methoxyethyl)(4-(5,6,7,8-tetrahydro-1,8-naphthyridin-2-yl)butyl)amino)-2-(quinazolin-4-ylamino)butanoic acid, reference compound], the purity decrease in data set [1] (25° C./92.5% RH in an open container, 4 weeks) was 0.6%; in data set [1] (60° C. in a closed container, 4 weeks) it was 1.1%; in data set [2] (40° C./75% RH in an open container, 4 weeks) it was 2.5%. For the same molecule, the physical stability result in data set [1] (60° C. in a closed container over 4 weeks) was “physically stable”. Further, the “Bulk (HPLC) purity, 316 nm” value worked out at 99.7% in data set [1] (Solid state, 25° C./92.5% RH, open container, 1 week); 99.2% in data set [1] (Solid state, 25° C./92.5% RH, open container, 4 weeks); 98.7% in data set [1] (Solid state, 40° C./75% RH, open container, 1 week); 97.3% in data set [1] (Solid state, 40° C./75% RH, open container, 4 weeks); 99.3% in data set [1] (setting [6]); 98.7% in data set [1] (Solid state, 60° C., closed container, 4 weeks). Besides, in data set [1] (setting [6]), the “Bulk (XRPD)” value is listed as “No form change”. Further, the “Bulk appearance (color change / deliquescence)” value in data set [2] (25° C./92.5% RH) and in data set [2] (40° C./75% RH) was “deliquescent” each time. In addition, the “pH of supernatant at 24 h” value in data set [3] (FaSSGF, pH 1.6, 37° C.) is “(5.8)”; in data set [3] (FaSSIF-v1, pH 6.5, 37° C.) it was “(5.9)”; in data set [3] (FeSSIF-v1, pH 5.0, 37° C.), “(5.8)”; in data set [3] (Water, 37° C.) it was “(5.8)”; in data set [3] (pH 1.2 HCl buffer, 37° C.), “(1.6)”; in data set [3] (setting [7]), “(4.8)”. Moreover, the “pH of supernatant at 24 h” value in data set [3] (setting [8]) is listed as “(6.7)”. The “Solubility (mg/ mL) 2 h” value in data set [3] (FaSSGF, pH 1.6, 37° C.) is greater than 247 mg/mL; in data set [3] (FaSSIF-v1, pH 6.5, 37° C.) it was greater than 213 mg/mL; in data set [3] (FeSSIF-v1, pH 5.0, 37° C.), greater than 214 mg/mL; in data set [3] (Water, 37° C.) it was greater than 247 mg/mL; in data set [3] (pH 1.2 HCl buffer, 37° C.), greater than 208 mg/mL; in data set [3] (setting [7]), greater than 228 mg/mL. Also, the “Solubility (mg/ mL) 2 h” value in data set [3] (setting [8]) was greater than 229 mg/mL. Besides, the “Solubility (mg/ mL) 24 h” value was greater than 247 mg/mL in data set [3] (FaSSGF, pH 1.6, 37° C.); greater than 214 mg/mL in data set [3] (FaSSIF-v1, pH 6.5, 37° C.); greater than 218 mg/mL in data set [3] (FeSSIF-v1, pH 5.0, 37° C.); greater than 247 mg/mL in data set [3] (Water, 37° C.); greater than 208 mg/mL in data set [3] (pH 1.2 HCl buffer, 37° C.); greater than 228 mg/mL in data set [3] (setting [7]). The “Solubility (mg/ mL) 24 h” value in data set [3] (setting [8]) was greater than 229 mg/mL.

In the case of `COCCN(CCCCc1ccc2c(n1)NCCC2)CC[C@H](Nc1ncnc2ccccc12)C(=O)O` [Pattern B, (S)-4-((2-methoxyethyl)(4-(5,6,7,8-tetrahydro-1,8-naphthyridin-2-yl)butyl)amino)-2-(quinazolin-4-ylamino)butanoic acid], the “water activity (a.w.) at which the pattern was obtained” value in data set [4] (5° C.) and in data set [4] (25° C.) was 1.0 in each case.

Consider `COCCN(CCCCc1ccc2c(n1)NCCC2)CC[C@H](Nc1ncnc2ccccc12)C(=O)O` [Pattern C, (S)-4-((2-methoxyethyl)(4-(5,6,7,8-tetrahydro-1,8-naphthyridin-2-yl)butyl)amino)-2-(quinazolin-4-ylamino)butanoic acid], for which, in data set [5], the form conversion entry is “converts to Pattern B”.

Source of the values: patent US20250197393A1, “INTEGRIN INHIBITOR AND USES THEREOF” (Pliant Therapeutics, Inc., priority 2023, published 2025).
